According to a melting point compilation (Tetko et al.; mined from patent text by program, amines drawn as free bases though some values may be those of a salt):

Structure (SMILES) | melting point [°C]
N#Cc1cnc2cc(/C=C/CN3CCOCC3)ccc2c1Nc1ccc(Cl)cc1Cl | 175 to 176
Cc1ccc(NC(=O)C(=O)N2CCC(Cc3ccc(F)cc3)CC2)cc1 | 125 to 126
COc1ncccc1NC(=O)Nc1ccc(N2CCN(C(=O)Nc3ccc(OCCO)cc3C(F)(F)F)CC2)cc1 | 120 to 123
CCCCCCCCCC(=O)Nc1ccc(S(=O)(=O)Nc2nnc(C(=O)OCC)s2)cc1 | 101 to 102
CCCCCCCCCCCCCCCCCCSC(C)CC#N (stereo not drawn) | 38
N#Cc1ccc(-c2cnc(-c3ccc(C#N)cc3)cn2)cc1 | > 300
CC(C)(C)OC(=O)NC(Cc1ccccc1)C(O)CNCC(O)C(CCc1ccccc1)NC(=O)OCc1ccccc1 (stereo not drawn) | 150 to 151
CSc1ccc(OC(C)c2ccnc3ncnn23)cc1 (stereo not drawn) | 84 to 86
Nc1ccn(C2CC(O)C(CO)O2)c(=O)c1F (stereo not drawn) | 161 to 163
COC(=O)c1c(F)cc(OCCNC(=O)C2Cc3ccccc3N2S(=O)(=O)c2ccc(-c3ccc(F)cc3)cc2)cc1F (stereo not drawn) | 83
CCOC(=O)CN(C)c1ccc(N=C=S)cc1 | 90 to 91
CC(C)(C)c1ccc(C=C(SC(=Cc2ccc(C(C)(C)C)cc2)S(=O)(=O)c2ccccc2)S(=O)(=O)c2ccccc2)cc1 | 57 to 58
COc1ccc(-c2cc(Cl)cc3c2N(C)C(CN)CO3)c(C)c1 (stereo not drawn) | 106
O=Cc1cn(C(c2ccccc2)(c2ccccc2)c2ccccc2)cn1 | 186 to 194
C#Cc1ccnc(NC(C)C)n1 | 84 to 85
CC1(C)CC(C(O)CNc2nc(Cl)nc(NCC(O)C3CC(C)(C)NC(C)(C)C3)n2)CC(C)(C)N1 (stereo not drawn) | 206 to 207
CS(=O)(=O)c1ccc(-c2cnn(CC(F)(F)F)c(=O)c2OCC2CC2)cc1 | 133 to 135
COc1cc(F)c(-c2cncc(OC3SCC(O)C(O)C3O)c2)c(F)c1 (stereo not drawn) | 200
O=C(O)c1ccc2c(c1)oc(=O)c1cc(C(=O)O)ccc12 | > 300
O=C(O)c1cn(-c2ccncc2F)c2nc(Cl)c(F)cc2c1=O | 228 to 230
O=C1SC2CCN(Cc3ccccc3Cl)CC2=C1O (stereo not drawn) | 121
C=C(CN1C(=O)[C@H]2CCCN2C(=O)c2ccccc21)c1ccc(C(=O)Nc2ccccc2N)cc1 | 160 to 162
CC(=O)c1ccc2c(c1)C(=O)C1(CC1)S2 | 128 to 129
N#CC1CN(C(=O)[C@H](NC(=O)c2c[nH]c3ncc(-c4ccc(N5CCOCC5)cc4)nc23)C2CC2)C1 | 186 to 192
Cc1ccc2[nH]c3c(c2c1)C(C(=O)O)CCC3 (stereo not drawn) | 194 to 197

Structure (SMILES) | melting point [°C]
CC(N)C1CCC(C(=O)Nc2ccncc2)CC1 (stereo not drawn) | 286 to 287
CCCCC(=O)Nc1cccc2c1C1(COc3cc4c(cc31)OCCO4)C(=O)N2C (stereo not drawn) | 182 to 183
CC(=O)Oc1cccc2c1CCNC2=O | 189 to 193
CCCOc1cnc(CCl)cc1O | 165 to 167
Cc1[nH]cnc1/C=C/C(=O)c1c(C)oc2ccccc12 | 166 to 168
COc1c(OC)c(O)c2c(=O)c3ccc(O)c(OC)c3[nH]c2c1OC | 214 to 215
CC(C)c1ccc(CCNc2ncnc3ncccc23)cc1 | 200 to 203
C[C@@H]1c2cccn2-c2ccc(F)cc2N1C(=O)c1ccc(O)cc1 | 125 to 129
COc1ccc(-c2cn3ccc(C)cc3n2)cc1 | 157 to 160
N#Cc1ccc(COc2ccc3ccccc3c2C=O)cc1 | 163 to 164
O=C(NCc1ccc(Br)cc1)Nc1cccc2[nH]ccc12 | 198
CCOC=Nc1ccc2nnc(-c3ccc([N+](=O)[O-])s3)n2n1 | 180 to 182
CC1(C)CCC(C)(C)c2cc(OCc3ccc(CN)cc3)ccc21 | 77 to 79
O=C(Oc1ccccc1)C(=O)Oc1ccc2c(c1)C(c1ccccc1)C(=O)O2 (stereo not drawn) | 134
CCCC=Cc1c(C(C)C)nc(C(C)C)c(CO)c1-c1ccc(F)cc1F | 59 to 62
CN(C)CCSc1c2ccccc2c(-c2cc(Br)c(O[C@H](Cc3ccccc3)C(=O)O)c(Br)c2)c2c1sc1ccccc12 | 169 to 174
CCOC(=O)c1cn(Cc2ccccc2)nc1OCc1ccc(OCc2nc(-c3ccco3)oc2C)nc1 | 140 to 141
COc1c(-c2cc3c(s2)C(O)CC(C)(C)C3)ccc2c(=O)c(C(=O)O)cn(C3CC3)c12 (stereo not drawn) | 182 to 183
CSCC(C)(C)N(C(=O)c1c(I)cccc1C(N)=O)c1ccc(Cn2nnn(-c3ccc(C(F)(F)F)cc3)c2=O)cc1C | 83 to 87
N#Cc1cccc2c1CCCC2=O | > 230
CC(C)CCCC(C)C1CC(=O)C2=C3C(F)CC4CC(OC(=O)c5ccccc5)CCC4(C)C3CCC21C (stereo not drawn) | 144 to 145
CC(C)(C)CNc1cc(N2CCNCC2)nc(NC(C)(C)C)n1 | 120 to 124
COC(=O)c1cc(Cl)cc2c1OCCN2 | 60 to 61
COc1cc(C)nc(-n2cncn2)n1 | 142 to 143
CC(O)Cc1nc(Cl)ccc1N (stereo not drawn) | 118 to 121

Structure (SMILES) | melting point [°C]
CCOC(=O)COc1ccc2cc(-c3cc4ccccc4s3)ccc2c1Cl | 187 to 188
COC(=O)Cc1cc2c(s1)NC(=S)C(C)N=C2c1ccccc1Cl (stereo not drawn) | 196 to 197
Nc1cc[nH]c(=O)c1Br | 255 to 258
CC(=O)c1cncn1C1c2ccccc2CC1(C)C (stereo not drawn) | 69 to 70
CCCCCCCCCCCCC1=C(Br)C(=O)c2ccccc2C1=O | 98 to 100
CSc1sc(C(N)=O)c2c1-c1nn(C)cc1CC2 | 285 to 286
O=S(=O)(CCCCCOc1ccc(C2=C(c3ccccc3)CCCc3cc(O)ccc32)cc1)CCCC(F)(F)C(F)(F)F | 176 to 178
CC(C)(C)N1CC2(CCN(Cc3ccccc3)CC2)OC1=O | 110 to 112
CN(CCCNC(=O)c1ccc(OC(F)(F)F)cc1)CCCNC(=O)c1ccc(OC(F)(F)F)cc1 | 110 to 111
COC(=O)C(C)(C)OCc1cc(-c2ccc(Cl)s2)no1 | 128 to 130
CCn1c(=O)c2c(nc(/C=C/c3cccc(OC)c3)n2C)n(CC)c1=O | 153 to 155
CCOC(=O)c1ccc(-n2cnnc2)cc1 | 209 to 211
COc1ccc(NC(=O)c2c(Cl)cccc2Cl)c2nccc(Cl)c12 | 238 to 242
N#Cc1ccc(N2C(=O)N(CCCCO)C3(CCSCC3)C2=O)cc1C(F)(F)F | 139 to 140
CNCC1Cc2cc(C(F)(F)F)cc(-c3cccc(F)c3F)c2O1 (stereo not drawn) | 123 to 125
CC(=O)c1ccc(OCCc2nc(-c3ccccc3)oc2C)cc1 | 70 to 71
CC(=O)Nc1ccc2c(c1)OCc1cc([N+](=O)[O-])ccc1C2=O | 171
CSc1cc(C(C)(C)C)nn1C(=O)Cl | 64 to 66
CS(=O)(=O)Nc1ccc(CCOc2ccc(C=C3SC(=O)NC3=O)cc2)cc1 | 130
Cn1c(Cl)c(C=O)c2cc(Cl)ccc21 | 165 to 167
O=C(COCCCl)Nc1ccc([N+](=O)[O-])cc1 | 101 to 102
Cc1nc2c(OCc3c(Cl)ccc(N(C)C)c3Cl)cccn2c1Br | 120 to 122
Cn1ccnc1S(=O)c1ccccc1Cl (stereo not drawn) | 132 to 134
